Data reported in patent US12000825B2, “Method of selecting stem cells having ability to produce extracellular vesicles with high efficiency using activation of protease-activated receptor-mediated signaling pathways” (SAMSUNG LIFE PUBLIC WELFARE FOUNDATION, priority 2019, dated 2024).
Entries after “also recorded” stand apart in the source; their conditions may differ.

How the values were obtained:
[1] = tested on: Human umbilical cord blood-derived mesenchymal stem cells (MSCs); assay: Bioplex assay / ELISA of proteins in EVs (VEGF, angiogenin, angiopoietin-1, HGF); type: cell-based
Experimental: (§1) To pretreat the umbilical cord blood-derived mesenchymal stem cells with thrombin, first, the mesenchymal stem cells were cultured in α-MEM (Gibco, Grand Island, NY, USA) supplemented with 10% (v/v) fetal bovine serum (FBS, Gibco), 100 units/mL penicillin, and 100 μg/mL streptomycin (Invitrogen, Carlsbad, CA, USA) under standard culture conditions. When the cells reached approximately 90% confluency in a culture plate, the cells were washed three times with phosphate buffered saline (PBS) to remove contaminated FBS-derived exosomes, and were then incubated in new serum-free α-MEM supplemented with human recombinant thrombin (1 U/mL, 2 U/mL, and 4 U/mL; Sigma-Aldrich, St. Louis, MO, USA) for 6 hours. After the medium was collected, about 2×10^6 cells per 100 mm culture dish was counted using a Luna-FL™ system (Logos Biosystems, Anyang-si, Korea).
To analyze the cytokine levels of EVs by ELISA, an experiment was conducted using the following method. Specifically, a homogenate of isolated EVs was added to a well containing 0.1 mL of lysis buffer in an ELISA kit. Subsequently, proteins in EVs were quantified using the Bradford method, and then 1 μg of protein was loaded into each well. Thereafter, the levels of angiogenin, angiopoietin-1, VEGF, and HGF, which are present in EVs, were quantified using the Fluorokine® MAP Human Angiogenesis Custom Premix Kit A (R & D Systems, Minneapolis, MN, USA).

Rab-5 and EEA-1 = assay: Immunoblot of early endosome markers; type: cell-based, human
Experimental: (§2) Umbilical cord blood-derived mesenchymal stem cells and EVs were lysed by adding an equal volume of RIPA buffer (Sigma-Aldrich, St. Louis, MO, USA). The protein contents of the lysates were quantified using the Bradford method, and samples containing 10 μg of proteins were mixed with loading buffer containing β-mercaptoethanol, boiled for 10 minutes, and separated according to size by 12% SDS-polyacrylamide gel electrophoresis (SDS-PAGE). Subsequently, the separated proteins were transferred to nitrocellulose membranes, and then a 5% bovine serum albumin (BSA) solution was prepared with 0.5% Tween-20-containing 1×PBS-T, the membranes were blocked therewith at room temperature, followed by treatment with primary antibodies and incubation at room temperature for 1 hour. After incubation, the membranes were washed with 1×PBS-T, followed by incubation with anti-mouse or anti-rabbit horseradish peroxidase-conjugated immunoglobulin G (1:2000) secondary antibodies while being stirred at room temperature for 1 hour. Subsequently, after washing with PBS-T, protein bands were detected using an ECL Select chemiluminescence reagent (GE Healthcare Life Sciences, Piscataway, NJ, USA), and band images were acquired with X-ray films.

[2] = tested on: Human umbilical cord blood-derived mesenchymal stem cells (MSCs); assay: Isolation and quantification of extracellular vesicles (NanoSight); type: cell-based; settings: for production of EVs: 6 hours, FIG. 1A
Experimental: as §1
To isolate extracellular vesicles (hereinafter, referred to as EVs) secreted by the umbilical cord blood-derived mesenchymal stem cells pretreated with thrombin according to the method of Example 1-1, an experiment was conducted according to the following processes. Specifically, the above recovered medium was centrifuged at 3,000 rpm and 4° C. for 30 minutes to remove cell debris, and then centrifuged at 100,000 rpm and 4° C. for 120 minutes to precipitate EVs. Then, the precipitated pellet was washed twice, re-suspended in sterile PBS, and stored at −80° C. until use.
The distribution of EVs was analyzed by measuring the rate of Brownian motion using NanoSight (NanoSight NS300; Malvern, Worcestershire, UK), which is equipped with fast video capture and particle-tracking software. The obtained EVs were re-suspended in PBS (500 μl, 1 mg/mL total protein), and size and polydispersity thereof were measured. In addition, to quantify the production of EVs by a single cell, cells were counted using a LUNA-FL system according to the manufacturer's protocol using the medium recovered above. The number of EVs produced by a single cell was calculated by dividing the total number of EVs by the number of cells.

[3] = tested on: Human umbilical cord blood-derived mesenchymal stem cells (MSCs); assay: Early endosome labeling (CellLight Early Endosomes-GFP); type: cell-based
Experimental: Early endosomes were labeled using CellLight® reagent-green fluorescent protein (GFP), BacMam 2.0 (Thermo Fisher Scientific, San Jose, CA, USA) according to the manufacturer's instructions. Briefly, mesenchymal stem cells were dispensed in a 12-well plate at a density of 1.5×10^4 per well, and after cells were attached, BacMam 2.0 reagent was added at a concentration of 40 particles per cell (PPC). Next, to measure Rab5α-GFP expression, early endosomes were labeled using CellLight® early endosomes-GFP, BacMam 2.0. Thereafter, to estimate the number of GFP-labeled endosomes, the optical density of green immunofluorescence was measured using ImageJ (National Institutes of Health, Bethesda, MD, USA).

[4] = tested on: ERK1/2 and AKT signaling pathways; assay: Immunoblot of ERK1/2 and AKT phosphorylation; type: cell-based, human
Experimental: as §2

[5] = tested on: Human umbilical cord blood-derived mesenchymal stem cells (MSCs); assay: Observation of EVs by SEM and TEM; type: cell-based; settings: thrombin-pretreated vs not treated, FIG. 1D
Experimental: EVs (5 μl) were fixed with 2% glutaraldehyde, loaded on 200-mesh formvar/carbon-coated electron microscopy grids (Electron Microscopy Sciences, Washington, PA, USA), and incubated for 10 minutes. Subsequently, the EVs were washed with filtered distilled water and stained with 2% uranyl acetate in water for 1 minute. Thereafter, the stained EVs were observed using a Tecnai Spirit G2 transmission electron microscope (FEI, Hillsboro, OR, USA) operating at 120 kV, and then an image thereof was acquired.
Meanwhile, to observe isolated EVs using a scanning electron microscope, EVs were fixed in 2.5% glutaraldehyde and loaded on a polycarbonate membrane. Next, the membrane was washed once with PBS and water and then dehydrated with acetone. Subsequently, the acetone was removed by critical point drying using liquid carbon dioxide. Samples were mounted on aluminum stubs with carbon tape and mounted on an SEM stub. After sputter coating with 3-5 nm platinum, the samples were observed using a scanning electron microscope (Zeiss Auriga Workstation, Oberkochen, Germany) and images thereof were acquired.

[6] = compared to no thrombin, in proportion to thrombin concentration

CC(C)c1ccc(Cn2ccc3c4c(N)nc(NC5CC5)nc4ccc32)cc1.Cl.Cl [SCH79797, N3-cyclopropyl-7-[[4-(1-methylethyl)phenyl]methyl]-7H-pyrrolo[3,2-f]quinazolin-1,3-diamine dihydrochloride, reference compound]
increase in the levels of proteins in EVs, comparison ([1]; compared to transfection with PAR3 siRNA, FIG. 5D): inhibited at a higher level | increase in the levels of VEGF, angiogenin, angiopoietin-1 and HGF in EVs ([1]; thrombin-pretreated MSCs, SCH79797 1 μM, FIG. 5D): significantly inhibited | expression levels of Rab-5 and EEA-1, comparison (Rab-5 and EEA-1; thrombin-pretreated MSCs, compared to the PAR3 siRNA-treated group, FIG. 4A): further reduced | expression levels of Rab-5 and EEA-1 (Rab-5 and EEA-1; thrombin-pretreated MSCs, compared to thrombin alone, SCH79797 1 μM, FIG. 4A): significantly reduced | increase in the number of extracellular vesicles by thrombin, comparison ([2]; compared to transfection with PAR3 siRNA, FIGS. 5B and 5C): inhibited at a higher level | increase in the number of extracellular vesicles by thrombin treatment ([2]; thrombin-pretreated MSC culture media, SCH79797 1 μM, FIGS. 5B and 5C): significantly inhibited | increase in the number of early endosomes by thrombin, comparison ([3]; compared to transfection with PAR3 siRNA, FIG. 5A): more significantly inhibited | increase in the number of early endosomes by thrombin treatment ([3]; thrombin-pretreated MSCs, SCH79797 1 μM, FIG. 5A): significantly inhibited | increase in phosphorylation of ERK1/2 and AKT by thrombin, comparison ([4]; compared to PAR-3-specific siRNA treatment, FIG. 4B): inhibited at a more significant level | increase in phosphorylation of ERK1/2 and AKT by thrombin pretreatment ([4]; thrombin-pretreated MSCs, SCH79797 1 μM, FIG. 4B): significantly inhibited

thrombin
levels of proteins in extracellular vesicles, increase [1, 6]: ≥ 2 fold | levels of VEGF, angiogenin, angiopoietin-1 and HGF in EVs ([1]; thrombin 2 U/mL and 4 U/mL vs not treated, FIG. 1B): significantly increased | expression levels of early endosome markers Rab-5 and EEA-1 (Rab-5 and EEA-1; thrombin treatment vs none, FIG. 3A): significantly increased | EVs observed by SEM/TEM [5]: more EVs were observed | amount of produced extracellular vesicles, increase [2, 6]: ≥ 5 fold | production of EVs ([2]; thrombin 1-4 U/mL): increased in a thrombin concentration-dependent manner | production of EVs ([2]; thrombin 2 U/mL and 4 U/mL): significantly increased | number of isolated EVs ([2]; thrombin-pretreated vs not treated, FIG. 1E): greater number | level of early endosomes ([3]; thrombin-pretreated vs naive, FIG. 1C): significantly increased; also recorded: significantly high level | expression of non-phosphorylated ERK1/2 and AKT ([4]; thrombin treatment, not statistically significant, FIG. 3B): tended to increase slightly | expression of pERK1/2 and pAKT (phosphorylation of ERK1/2 and AKT) ([4]; thrombin-pretreated vs not treated, FIG. 3B): significantly increased
